The text below walks through data of article PMC8621172, “Manipulating Estrogenic/Anti-Estrogenic Activity of Triphenylethylenes towards Development of Novel Anti-Neoplastic SERMs” (International Journal of Molecular Sciences, 2021).

By inhibition is commonly meant the percentage by which the read-out fell short of the control. High values mean a strong effect, low ones a weak effect. Usually GI50 stands for the concentration that inhibits growth by half.

One assay deals with ER. As to conditions: fold over TAM; cited from earlier work.
For a further assay, the system named is MCF-7 cells. The assay is described as follows: NCI growth inhibition on MCF-7 (single dose and five-dose, SRB). As to conditions: Homo sapiens, MCF7. The assay is classed as cell-based, human. The procedure:
Compounds were submitted to the Developmental Therapeutics Program (DTP) of the National Cancer Institute (NCI). The program uses a panel of 60 human tumor cell lines representing nine tissue types, including leukemia, non-small cell lung cancer (NSCLC), melanoma, colon cancer, ovarian cancer, CNS cancer, renal cancer, prostate cancer, and breast cancer, to screen for potential new anti-cancer agents. […] Primary screening of synthesized compounds was performed by testing a single high dose of 10 µM in the full NCI-60 panel. The percent growth of treated cells relative to the no-drug control and relative to the time zero number of cells was measured, and a mean graph was provided. The percentage inhibition was then calculated by subtracting the values obtained from 100.
All compounds were subjected to the NCI in vitro disease-oriented human cells screening panel assay. The human tumor cell lines of the cancer-screening panel are grown in RPMI 1640 medium containing 5% fetal bovine serum and 2 mM L-glutamine. For a typical screening experiment, cells are inoculated into 96-well microtiter plates in 100 μL at plating densities ranging from 5000 to 40,000 cells/well depending on the doubling time of individual cell lines. After cell inoculation, the microtiter plates are incubated at 37 °C, 5% CO2, 95% air, and 100% relative humidity for 24 h prior to the addition of experimental drugs. After 24 h, two plates of each cell line are fixed in situ with TCA to represent a measurement of the cell population for each cell line at the time of drug addition. Experimental drugs are solubilized in dimethyl sulfoxide at 400-fold the desired final maximum test concentration and stored frozen prior to use. At the time of drug addition, an aliquot of frozen concentrate is thawed and diluted to twice the desired final maximum test concentration with complete medium containing 50 μg/mL gentamicin. Additional four, 10-fold, or ½ log serial dilutions are made to provide a total of five drug concentrations plus control. Aliquots of 100 μL of these different drug dilutions are added to the appropriate microtiter wells already containing 100 μL of medium, resulting in the required final drug concentrations. Following drug addition, the plates are incubated for an additional 48 h at 37 °C, 5% CO2, 95% air, and 100% relative humidity. For adherent cells, the assay is terminated by the addition of cold TCA. Cells are fixed in situ by the gentle addition of 50 μL of cold 50% (w/v) TCA (final concentration, 10% TCA) and incubated for 60 min at 4 °C. The supernatant is discarded, and the plates are washed five times with tap water and air-dried. Sulforhodamine B (SRB) solution (100 μL) at 0.4% (w/v) in 1% acetic acid is added to each well, and plates are incubated for 10 min at room temperature. After staining, unbound dye is removed by washing five times with 1% acetic acid, and the plates are air-dried. Bound stain is subsequently solubilized with a 10 mM trizma base, and the absorbance is read on an automated plate reader at a wavelength of 515 nm. For suspension cells, the methodology is the same except that the assay is terminated by fixing settled cells at the bottom of the wells by gently adding 50 μL of 80% TCA (final concentration, 16% TCA). Compounds are screened at a dose of 10 µM, hits showing mean growth inhibition over 60 cell lines >50% are escalated for 5-dose screening assay. To construct a dose-response curve, about 60 cell lines of nine tumor subpanels were incubated with five concentrations (0.01–100 μM) for each compound. Three response parameters (GI50, TGI, and LC50) were calculated for each cell line.

In the next assay the test system is colon cancer cell lines. Description: NCI five-dose assay, colon cancer subpanel. The assay is classed as cell-based. As to conditions: Homo sapiens. The procedure:
(§1) All compounds were subjected to the NCI in vitro disease-oriented human cells screening panel assay. The human tumor cell lines of the cancer-screening panel are grown in RPMI 1640 medium containing 5% fetal bovine serum and 2 mM L-glutamine. For a typical screening experiment, cells are inoculated into 96-well microtiter plates in 100 μL at plating densities ranging from 5000 to 40,000 cells/well depending on the doubling time of individual cell lines. After cell inoculation, the microtiter plates are incubated at 37 °C, 5% CO2, 95% air, and 100% relative humidity for 24 h prior to the addition of experimental drugs. After 24 h, two plates of each cell line are fixed in situ with TCA to represent a measurement of the cell population for each cell line at the time of drug addition. Experimental drugs are solubilized in dimethyl sulfoxide at 400-fold the desired final maximum test concentration and stored frozen prior to use. At the time of drug addition, an aliquot of frozen concentrate is thawed and diluted to twice the desired final maximum test concentration with complete medium containing 50 μg/mL gentamicin. […] Bound stain is subsequently solubilized with a 10 mM trizma base, and the absorbance is read on an automated plate reader at a wavelength of 515 nm. […] Three response parameters (GI50, TGI, and LC50) were calculated for each cell line.

Another assay concerns NSCLC cell lines. The assay is described as follows: NCI five-dose assay, NSCLC subpanel. The format is cell-based. Conditions: Homo sapiens. The procedure:
as §1

The test system of another assay is renal cell lines. Description: NCI five-dose assay, renal subpanel. The format is cell-based. As to conditions: Homo sapiens. The procedure:
as §1

The next assay has as its system prostate cell lines. The assay is described as follows: NCI five-dose assay, prostate subpanel. As to conditions: Homo sapiens. The format is cell-based. The procedure: as §1

Some results are limits rather than exact numbers.

Take `CC/C(=C(\c1ccc(O)cc1)c1ccc(OCCNC)cc1)c1ccccc1` [endoxifen]: the “affinity to the ER compared to the parent drug TAM (times)” value in the assay on ER is 100.

On to `CC/C(=C(\c1ccc(O)cc1)c1ccc(OCCN(C)C)cc1)c1ccccc1` [Compound 4-OH-TAM, 4-hydroxy-TAM], for which the “affinity to the ER compared to the parent drug TAM (times)” value in the assay with ER was 100.

In the case of `CC/C(=C(\c1ccccc1)c1ccc(OCCN(C)C)cc1)c1ccccc1` [TAM, Tamoxifen, reference compound], the inhibition at 10 µM in the assay on MCF-7 cells (10 µM) was greater than 100%. Further, the 50% growth inhibitory concentration (GI50) in the assay on MCF-7 cells (MCF-7, five-dose assay, 48 h) came to 1580 nM; in the assay on colon cancer cell lines, 6.31 µM; in the assay on NSCLC cell lines, 6.31 µM; in the assay on renal cell lines, 5 µM; in the assay with prostate cell lines, 5.35 µM.
